Laboratory results published in patent US20250040935A1, “FABRICATION OF RADIOPAQUE RESORBABLE HYDROGEL BEADS VIA MICROFLUIDICS FOR CATHETER EMBOLIZATION APPLICATIONS” (Saint Louis University, priority 2023, published 2025).

Assays:
Format in all cases: physicochemical
[1] = Docetaxel release from PEG gels/microspheres (Example 1); conditions: in the first 60 minutes, loaded at 0.1 mg/ml, released in 20:80 anhydrous ethanol:di-water
Procedure: Docetaxel release and in vivo efficacy. Docetaxel was released from the PEG microspheres over several hours, with 60% released in the first 60 minutes (FIG. 2A). For bulk release experiments, docetaxel was dissolved in anhydrous ethanol, loaded in PEG gels at 0.1 mg/ml and released in a 20:80 anhydrous ethanol:di-water. Release was followed by absorbance measurements at 220 nm. […] PC3 cells (2×10^6 cells) were injected and grown to ˜120 mm^3 tumor volume prior to treatment.

[2] = Apalutamide and docetaxel bulk release from hydrogels; conditions: after 24 h; from both PEG-only and 20% BaSO4 hydrogel
Procedure: To determine bulk release of drugs from hydrogels, acridine orange (AO), docetaxel, bicalutamide, and apalutamide release into a sink volume was measured. Samples from the sink volume were taken over time and then the amount of sample volume that was taken out was replaced with the same amount of sink solution. The sink solution for AO experiments was PBS and the sink solution used for docetaxel, bicalutamide, and apalutamide was 80:20 ethanol to DI water. The absorbance of each sample solution was measured to calculate the concentration of drug in the sample solution. The equation used to calculate these concentrations was from the standard curves obtained for each drug or acridine orange (AO). The concentrations of drugs or AO in solution allowed for quantifying each drug release profile as well as their diffusion coefficient from a hydrogel. Apalutamide (0.5 mg/mL) stock solution was prepared in 80:20 DMSO or ethanol and DI water. A standard curve was constructed for apalutamide by creating samples of known concentrations and measuring the absorbance at 260 nm of each sample. Hydrogels were then fabricated with conditions: PEG+Doc+Apa and PEG+BaSO4+Doc+Apa (Table 6). […] Absorbances of 230 nm and 260 nm were measured for each sample to be able to obtain concentrations of docetaxel and apalutamide released into solution.

[3] = Apalutamide and docetaxel microsphere release study; conditions: within the first 24 hrs; microspheres, PEG and 20% w/v 1 μm BaSO4 groups
Procedure: Barium microspheres (20% w/v) were fabricated using the T-junction and then frozen overnight at −80 degrees Celsius. The next morning the microspheres were lyophilized for 1 day. Once the microspheres were fully lyophilized, they were then swollen in 10 μL 0.5 mg/mL docetaxel and apalutamide for 1 day. The next day, the excess drug was removed from the centrifuge tube and 500 μL 80:20 ethanol to DI water was added. A release study was then preformed as described above and the release profile for 20% barium microspheres was obtained.

docetaxel released [1] | drug released [2] | initial burst release [3] | SMILES
60% | ~90% | ~90% | CC(=O)O[C@@]12CO[C@@H]1C[C@H](O)[C@@]1(C)C(=O)[C@H](O)C3=C(C)[C@@H](OC(=O)[C@H](O)[C@@H](NC(=O)OC(C)(C)C)c4ccccc4)C[C@@](O)([C@@H](OC(=O)c4ccccc4)[C@H]21)C3(C)C [Docetaxel]
– | – | ~80% | CNC(=O)c1ccc(N2C(=S)N(c3cnc(C#N)c(C(F)(F)F)c3)C(=O)C23CCC3)cc1F [Apalutamide]
